Experimental data published in the supplement of paper PMC11208160.

test: recombinant barcode read abundance after kanamycin selection (control-corrected) (log10(CPM+1)); higher = more efficient recombination; sequences stand for … in AGTGCAGAGAAAATCGGCCAGTTTTCTCTGCCTGCAGTCCGCATGCCGT…AGATTTATGCAGCGGACTGCCTTTCTCCCAAAGTGATAAACCGGACAGTATCATGGACCGGTTTTCCCGGTAATCCGTATTTGCAAGGTTGGTTTCACT; site = the 11-nt target
Method in brief: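 In E. coli, a pooled library matched targets to IS621 bridge RNA target-binding loops and was introduced alongside a donor plasmid. Cells went onto chloramphenicol/ampicillin/kanamycin with 0.1 mM IPTG or onto chloramphenicol/ampicillin LB agar as control, in duplicate. Recombination efficiency, from recombinant-junction barcodes as counts per million, is averaged and control-corrected. It is reported as log10(CPM+1).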
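Further: IS621 recombinase and bridge RNA in Escherichia coli cells.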

Row | Sequence | recombinant barcode read abundance (log10)
1 | ATACGTTCTTGGGTTCTAACCTGTTGCAT (site CAGGTCCCTCG) | 0.354
2 | ATACTAACTTGGGTTCTAACCTGTTGCCT (site AAACTAACTAG) | 0.0718
3 | ATACTAACTTGGGTTCTAACCTGTTGCCT (site ACACTAACTAG) | 0.477
4 | ATACTAACTTGGGTTCTAACCTGTTGCCT (site AGACTAACTAG) | 0.0472
5 | ATACTAACTTGGGTTCTAACCTGTTGCCT (site ATACTAACTAG) | 1.7
6 | ATAGAGTCTTGGGTTCTAACCTGTTGCTT (site AGAGAGTCTAA) | 0.352
7 | ATAGAGTCTTGGGTTCTAACCTGTTGCTT (site ATAGAGTCTAA) | 2.52
8 | ATAGCAACTTGGGTTCTAACCTGTTGCCT (site ATAGCAACTAG) | 0.64
9 | ATAGCAACTTGGGTTCTAACCTGTTGCCT (site ATAGCCACTAG) | 0.11
10 | ATAGCAACTTGGGTTCTAACCTGTTGCCT (site ATAGCGACTAG) | 0.0185
11 | ATAGCAACTTGGGTTCTAACCTGTTGCCT (site ATAGCTACTAG) | 0.0705
12 | ATAGCTACTTGGGTTCTAACCTGTTGCCT (site ATAGCAACTAG) | 0.142
13 | ATAGCTACTTGGGTTCTAACCTGTTGCCT (site ATAGCCACTAG) | 0.248
14 | ATAGCTACTTGGGTTCTAACCTGTTGCCT (site ATAGCGACTAG) | 0.0534
15 | ATAGCTACTTGGGTTCTAACCTGTTGCCT (site ATAGCTACTAG) | 1.2
16 | ATAGGACCTTGGGTTCTAACCTGTTGCCG (site ATAGGACCTCG) | 2.36
17 | ATAGGACCTTGGGTTCTAACCTGTTGCCG (site ATAGGACCTTG) | 0.143
18 | ATAGGTTCTTGGGTTCTAACCTGTTGCCT (site AAAGGTTCTAG) | 0.0456
19 | ATAGGTTCTTGGGTTCTAACCTGTTGCCT (site ACAGGTTCTAG) | 0.0769
20 | ATAGGTTCTTGGGTTCTAACCTGTTGCCT (site AGAGGTTCTAG) | 0.0854
21 | ATAGGTTCTTGGGTTCTAACCTGTTGCCT (site ATAGGTTCTAG) | 1.49
22 | ATATGGACTTGGGTTCTAACCTGTTGCTA (site ATAAGGACTTA) | 0.65

Row | Sequence | recombinant barcode read abundance (log10)
23 | ATATGGACTTGGGTTCTAACCTGTTGCTA (site ATACGGACTTA) | 1.34
24 | ATATGGACTTGGGTTCTAACCTGTTGCTA (site ATAGGGACTTA) | 0.159
25 | ATATGGACTTGGGTTCTAACCTGTTGCTA (site ATATGGACTTA) | 1.62
26 | ATATGGGCTTGGGTTCTAACCTGTTGCCG (site ATATGAGCTCG) | 0.369
27 | ATATGGGCTTGGGTTCTAACCTGTTGCCG (site ATATGCGCTCG) | 0.0627
28 | ATATGGGCTTGGGTTCTAACCTGTTGCCG (site ATATGGGCTCG) | 1.52
29 | ATATGGGCTTGGGTTCTAACCTGTTGCCG (site ATATGTGCTCG) | 0.1
30 | ATATTGCCTTGGGTTCTAACCTGTTGCCT (site ATATTGCCTAG) | 1.67
31 | ATATTGCCTTGGGTTCTAACCTGTTGCCT (site ATATTGTCTTG) | 0.0732
32 | ATATTTCCTTGGGTTCTAACCTGTTGCCT (site AAATTTCCTAG) | 0.0146
33 | ATATTTCCTTGGGTTCTAACCTGTTGCCT (site ACATTTCCTAG) | 0.0246
34 | ATATTTCCTTGGGTTCTAACCTGTTGCCT (site AGATTTCCTAG) | 0.163
35 | ATATTTCCTTGGGTTCTAACCTGTTGCCT (site ATATTTCCTAG) | 0.785
36 | ATCCAGCCTTGGGTTCTAACCTGTTGCCT (site ATCCAACCTAG) | 1.16
37 | ATCCAGCCTTGGGTTCTAACCTGTTGCCT (site ATCCACCCTAG) | 0.0824
38 | ATCCAGCCTTGGGTTCTAACCTGTTGCCT (site ATCCAGCCTAG) | 1.7
39 | ATCCAGCCTTGGGTTCTAACCTGTTGCCT (site ATCCATCCTAG) | 0.0724
40 | ATCCCACCTTGGGTTCTAACCTGTTGCGG (site ATACTACCTCC) | 0.0321
41 | ATCCCACCTTGGGTTCTAACCTGTTGCGG (site ATCCCACCTCC) | 1.89
42 | ATCCTAGCTTGGGTTCTAACCTGTTGCCG (site ATCCTAGCTCG) | 1.58
43 | ATCCTAGCTTGGGTTCTAACCTGTTGCCG (site TTCCTAGCTTG) | 0.299
44 | ATCGCTCCTTGGGTTCTAACCTGTTGCCT (site AACGCTCCTAG) | 0.128

Row | Sequence | recombinant barcode read abundance (log10)
45 | ATCGCTCCTTGGGTTCTAACCTGTTGCCT (site ACCGCTCCTAG) | 0.115
46 | ATCGCTCCTTGGGTTCTAACCTGTTGCCT (site AGCGCTCCTAG) | 0.122
47 | ATCGCTCCTTGGGTTCTAACCTGTTGCCT (site ATCGCTCCTAG) | 2.12
48 | ATCGGATCTTGGGTTCTAACCTGTTGCCT (site ATCGGAACTAG) | 0.195
49 | ATCGGATCTTGGGTTCTAACCTGTTGCCT (site ATCGGACCTAG) | 0.0656
50 | ATCGGATCTTGGGTTCTAACCTGTTGCCT (site ATCGGAGCTAG) | 0.232
51 | ATCGGATCTTGGGTTCTAACCTGTTGCCT (site ATCGGATCTAG) | 0.678
52 | ATCGGCCCTTGGGTTCTAACCTGTTGCTG (site ATCGGCCCTCA) | 2.07
53 | ATCGGCCCTTGGGTTCTAACCTGTTGCTG (site GTGGGCCCTCA) | 0.0497
54 | ATCTAAACTTGGGTTCTAACCTGTTGCCT (site ATCTAAACTAG) | 0.842
55 | ATCTAAACTTGGGTTCTAACCTGTTGCCT (site CGAGTCCCTCT) | 0.105
56 | ATCTACTCTTGGGTTCTAACCTGTTGCCT (site ATATACTCTCG) | 0.382
57 | ATCTACTCTTGGGTTCTAACCTGTTGCCT (site ATCTACTCTAG) | 1.56
58 | ATCTATACTTGGGTTCTAACCTGTTGCCT (site ATCTATACTAG) | 0.821
59 | ATCTATACTTGGGTTCTAACCTGTTGCCT (site GGACGAGCTCA) | 0.0107
60 | ATCTATCCTTGGGTTCTAACCTGTTGCAT (site ACCTAACCTAT) | 0.179
61 | ATCTATCCTTGGGTTCTAACCTGTTGCAT (site ATCTATCCTAT) | 0.198
62 | ATCTATTCTTGGGTTCTAACCTGTTGCCT (site ATCGATGCTAG) | 0.198
63 | ATCTATTCTTGGGTTCTAACCTGTTGCCT (site ATCTATTCTAG) | 0.111
64 | ATGAACACTTGGGTTCTAACCTGTTGCTG (site ATGAACACTCA) | 1.95
65 | ATGAACACTTGGGTTCTAACCTGTTGCTG (site TAATGGCCTTC) | 0.0343
66 | ATGAGAGCTTGGGTTCTAACCTGTTGCCT (site ATAAGACCTAG) | 0.324

Row | Sequence | recombinant barcode read abundance (log10)
67 | ATGAGAGCTTGGGTTCTAACCTGTTGCCT (site ATGAGAGCTAG) | 1.05
68 | ATGAGGACTTGGGTTCTAACCTGTTGCCT (site ATGAGGACTAG) | 1.84
69 | ATGAGGACTTGGGTTCTAACCTGTTGCCT (site CTGAGGACTAG) | 0.362
70 | ATGAGGACTTGGGTTCTAACCTGTTGCCT (site GTGAGGACTAG) | 0.12
71 | ATGAGGACTTGGGTTCTAACCTGTTGCCT (site TTGAGGACTAG) | 0.246
72 | ATGAGGCCTTGGGTTCTAACCTGTTGCTA (site ATGAGGCCTTA) | 0.739
73 | ATGAGGCCTTGGGTTCTAACCTGTTGCTA (site TCAGAAGCTCG) | 0.159
74 | ATGATACCTTGGGTTCTAACCTGTTGCAT (site ATGATACCTAT) | 1.71
75 | ATGATACCTTGGGTTCTAACCTGTTGCAT (site CCTGGGACTTA) | 0.243
76 | ATGATATCTTGGGTTCTAACCTGTTGCCT (site AAGATATCTAG) | 0.0255
77 | ATGATATCTTGGGTTCTAACCTGTTGCCT (site ACGATATCTAG) | 0.43
78 | ATGATATCTTGGGTTCTAACCTGTTGCCT (site AGGATATCTAG) | 0.181
79 | ATGATATCTTGGGTTCTAACCTGTTGCCT (site ATGATATCTAG) | 1.5
80 | ATGCAATCTTGGGTTCTAACCTGTTGCCT (site ATGCAAACTAG) | 0.104
81 | ATGCAATCTTGGGTTCTAACCTGTTGCCT (site ATGCAACCTAG) | 0.197
82 | ATGCAATCTTGGGTTCTAACCTGTTGCCT (site ATGCAAGCTAG) | 0.236
83 | ATGCAATCTTGGGTTCTAACCTGTTGCCT (site ATGCAATCTAG) | 1.09
84 | ATGCGAGCTTGGGTTCTAACCTGTTGCGG (site ATGCGAGCTCA) | 0.873
85 | ATGCGAGCTTGGGTTCTAACCTGTTGCGG (site ATGCGAGCTCC) | 1.92
86 | ATGCGAGCTTGGGTTCTAACCTGTTGCGG (site ATGCGAGCTCG) | 0.194
